# Laboratory results reported in ChEMBL document CHEMBL1201862, “PubChem BioAssay data set” (2004).
# Active and inactive are the calls of the source. For most assays here, no stated cut-off is given here; in the data, actives have a measured EC50 and inactives only a lower limit.
# What was measured:
# cells [1] = type: functional, cell-based
# cells [2] = type: functional, cell-based; remark: listed apart in the source
# [3] = HEp-2 cell cytotoxicity, dose response, cytotoxicity control for RSV inhibitor project, HTS (AID 2410); type: functional; details: human respiratory syncytial virus
# [4] = inhibitors of SNCA 5'UTR-driven reporter translation, confirmation, H4 neuroglioma cells, luminescence (AID 1988); type: functional, cell-based
# [5] = Luminescence Cell-Based Dose Response HTS to Identify Inhibitors of 5'UTR Stem-Loop Driven Prion Protein mRNA Translation in H4 Neuroglioblastoma Cells. [Related pubchem assays: 1827 (Project Summary), 1813 (Primary HTS)]; type: functional
# [6] = inhibitors of firefly luciferase expression or activity, dose response, H4 neuroglioma cells, luminescence (AID 1990); type: functional, cell-based
# H9c2 = test: cells; type: functional, cell-based; details: Rattus norvegicus, H9c2, Myocardium;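 further: confirmatory concentration-response retest of ultra-high-throughput screening hits for modulation of myocardial damage; cell death induced by hydrogen peroxide oxidative stress; compound pretreatment for 60 min then peroxide exposure for 2 h; potency is for protecting the cells against peroxide damage rather than for killing them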
# [7] = target: T1, Heat shock factor protein 1 (Mus musculus, UniProt P38532); test: inhibition of MG132-induced HSE-luciferase signal, confirmation, cell-based, NIH3T3, luminescence, dose retest (AID 2382); type: functional;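 further: NIH3T3 fibroblasts with HSF1-driven luciferase reporter stressed by proteasome inhibitor MG132; luminescence from HSF1-driven luciferase expression after 8 hours of MG132 stress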
# T1 sequence (P38532 whole entry): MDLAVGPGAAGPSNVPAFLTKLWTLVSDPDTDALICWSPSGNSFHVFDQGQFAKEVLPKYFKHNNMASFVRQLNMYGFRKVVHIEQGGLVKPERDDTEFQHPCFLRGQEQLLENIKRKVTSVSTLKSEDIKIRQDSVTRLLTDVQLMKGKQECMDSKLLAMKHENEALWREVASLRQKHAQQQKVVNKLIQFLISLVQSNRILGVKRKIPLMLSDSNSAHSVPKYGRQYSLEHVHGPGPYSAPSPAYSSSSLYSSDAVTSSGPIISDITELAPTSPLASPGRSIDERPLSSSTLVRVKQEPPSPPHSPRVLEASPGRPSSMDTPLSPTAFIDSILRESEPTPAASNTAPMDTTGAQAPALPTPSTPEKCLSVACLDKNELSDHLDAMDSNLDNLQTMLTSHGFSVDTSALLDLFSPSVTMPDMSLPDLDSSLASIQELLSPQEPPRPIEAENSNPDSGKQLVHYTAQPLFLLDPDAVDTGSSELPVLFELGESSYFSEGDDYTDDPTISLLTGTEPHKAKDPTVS
# [8] = growth suppression of beta-catenin-knockout colon cells, dose response, cell-based, HCT116, human colon tumor (AID 1045); type: functional;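 further: HCT116 colon tumor cells with beta catenin knocked out; cells exposed to compound for 60 hours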
# [9] = growth suppression of PTEN-null colon cells, dose response, cell-based, HCT116 PTEN knockout (AID 1047); type: functional;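 further: HCT116 colon tumor cells with PTEN knocked out; cells exposed to compound for 60 hours before readout; potency for loss of cell viability measured by luminescence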
# INS1 = test: beta cell apoptosis inhibitors, cytokine rescue, dose response, luminescence, retest (AID 449756); type: functional, cell-based; details: Rattus norvegicus;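 further: cell death triggered by IL-1 beta plus TNF-alpha plus IFN-gamma mixture; protective hits raise ATP signal compared with cytokine alone wells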
structure (smiles),measurement,setting,value
O=C(CCCc1ccccc1)Nc1ccccn1,EC50,cells [1],> 350 µM (not active)
same,EC50,cells [2],> 350 µM (not active)
Cn1c(SCC(=O)Nc2ccccc2)nnc1-c1ccc(NC(=O)CCc2ccccc2)cc1,EC50,cells [1],> 350 µM (not active)
same,EC50,cells [2],> 350 µM (not active)
CCc1nn(CCCC(=O)N2CCN(c3cccc(C)c3C)CC2)c(=O)c2cc3occc3n12,CC50,[3],17 µM (active)
c1ccc2c(c1)CSc1ccccc1N2,EC50,[4],> 120 µM (not active)
same,EC50,[5],> 120 µM (not active)
same,EC50,[6],> 120 µM (not active)
CC(C)OC(=O)/C(C#N)=C/c1cn(Cc2ccccc2)c2ccccc12,EC50,[4],7.08 µM (active)
same,EC50,[5],13.4 µM (active)
same,EC50,[6],11.5 µM (active)
Fc1ccc(-n2cc(-c3ccccc3)c3c(N4CCOCC4)ncnc32)cc1,IC50,H9c2,> 79 µM (inactive)
same,EC50,[7],2.3 µM (active)
CCOC(=O)CSc1nc(O)c2ccccc2n1,IC50,H9c2,> 79 µM (inactive)
CCc1cc(=O)oc2cc(OC(C)C(=O)NCC(O)c3ccccc3)c(Cl)cc12 (configuration not stated),EC50,[4],> 120 µM (not active)
same,EC50,[5],> 120 µM (not active)
same,EC50,[6],> 120 µM (not active)
COc1ccc2sc(NC(=O)NC(=O)c3c(Cl)cccc3Cl)nc2c1,CC50,[3],17.3 µM (active)
CSc1ccccc1NC(=O)c1ccc(N2CC3CC(C2)c2cccc(=O)n2C3)c(NC(=O)c2cccnc2)c1 (configuration not stated),EC50,[4],> 120 µM (not active)
same,EC50,[5],> 120 µM (not active)
same,EC50,[6],> 120 µM (not active)
CCOc1nc(NCCc2ccc(OC)c(OC)c2)nc(N2CCN(c3ccc(OC)cc3)CC2)n1,EC50,[8],10.5 µM (active)
same,EC50,[9],6.42 µM (active)
O=C(NN=Cc1cccc([N+](=O)[O-])c1)c1cc(-c2cccnc2)nc2ccccc12,IC50,H9c2,> 79 µM (inactive)
O=C(Nc1ccc2nc(N3CCOCC3)sc2c1)c1cc2ccccc2o1,IC50,H9c2,> 79 µM (inactive)
COc1cc(/C=N/NC(=O)NC23CC4CC(CC(C4)C2)C3)ccc1OCC(N)=O,IC50,H9c2,> 79 µM (inactive)
CCn1c(O)c(/C=N/N=C2CCCCC2)c2cc(C3=NNC(=O)CC3)ccc21,IC50,H9c2,> 79 µM (inactive)
O=C(N/N=C/c1ccccc1O)/C(=C/c1ccccc1)CCO,EC50,cells [1],> 350 µM (not active)
same,AC50,INS1,2.57 µM (active)
same,EC50,cells [2],50.4 µM (active)
COc1cc(C(=O)O/N=C2/C=CC(=O)C(C)=C2C)cc(OC)c1OC,EC50,[8],19 µM (active)
same,EC50,[9],18.3 µM (active)
